Data as given in US9364482B2, “Substituted benzofuran compounds and methods of use thereof for the treatment of viral diseases” (priority 2013, dated 2016).
Like-named read-outs stand apart in the source and are kept apart here.

Tests used:
[1] = tested on: HCV replicon genotype 1b; experiment: microbe, parasite or virus in culture; format: cell-based, hepatitis C virus (HCV)
[2] = tested on: HCV replicon genotype 1a; experiment: microbe, parasite or virus in culture; format: cell-based, hepatitis C virus (HCV)
[3] = Hepatitis C virus, 96 h, read-out: 1b IC50 (nM)
[4] = Hepatitis C virus, 96 h, read-out: 1a IC50 (nM)

SMILES | IC50 [1, 3] | IC50 [2, 4] | IC50 ([1]; read-out: 1b IC50) | IC50 ([2]; read-out: 1a IC50)
CNC(=O)c1c(-c2ccc(F)cc2)oc2cc(N(C)S(C)(=O)=O)c(-c3ccc4nc(C)n(Cc5ccc(F)cc5OC)c(=O)c4n3)cc12 [Compound 63, 5-(3-(4-fluoro-2-methoxybenzyl)-2-methyl-4-oxo-3,4-dihydropyrido[3,2-d]pyrimidin-6-yl)-2-(4-fluorophenyl)-N-methyl-6-(N-methylmethylsulfonamido)benzofuran-3-carboxamide] | 9 nM | 23.7 nM | – | –
CNC(=O)c1c(-c2ccc(F)cc2)oc2cc(N(C)S(C)(=O)=O)c(-c3ccc4nc(C)n([C@@H](COC)c5ccc(F)cc5)c(=O)c4n3)cc12 [Compound 65, (R)-2-(4-fluorophenyl)-5-(3-(1-(4-fluorophenyl)-2-methoxyethyl)-2-methyl-4-oxo-3,4-dihydropyrido[3,2-d]pyrimidin-6-yl)-N-methyl-6-(N-methylmethylsulfonamido)benzofuran-3-carboxamide] | 2.95 nM | 9.28 nM | – | –
CNC(=O)c1c(-c2ccc(F)cc2)oc2cc(N(C)S(C)(=O)=O)c(-c3ccc4ncn([C@H](C)c5ccc(F)cc5)c(=O)c4c3)cc12 [Compound 50, 2-(4-fluorophenyl)-5-{3-[(1R)-1-(4-fluorophenyl)ethyl]-4-oxo-3,4-dihydroquinazolin-6-yl}-N-methyl-6-[methyl(methylsulfonyl)amino]-1-benzofuran-3-carboxamide] | 4.23 nM | 3.18 nM | – | –
CNC(=O)c1c(-c2ccc(F)cc2)oc2cc(N(C)S(C)(=O)=O)c(-c3ccc4nnn([C@H](CO)c5ccc(F)cc5)c(=O)c4c3)cc12 [Compound 40, 2-(4-fluorophenyl)-5-{3-[(1S)-1-(4-fluorophenyl)-2-hydroxyethyl]-4-oxo-3,4-dihydro-1,2,3-benzotriazin-6-yl}-N-methyl-6-[methyl(methylsulfonyl)amino]-1-benzofuran-3-carboxamide] | 9.03 nM | 6.19 nM | – | –
CNC(=O)c1c(-c2ccc(F)cc2)oc2cc(N(C)S(C)(=O)=O)c(-c3ccc4c(n3)C(=O)N([C@H](C)c3ccc(F)cc3)CO4)cc12 [Compound 30, (R)-2-(4-fluorophenyl)-5-(3-(1-(4-fluorophenyl)ethyl)-4-oxo-3,4-dihydro-2H-pyrido[2,3-e][1,3]oxazin-6-yl)-N-methyl-6-(N-methylmethylsulfonamido)benzofuran-3-carboxamide] | – | – | 2.23 nM | 0.981 nM
CNC(=O)c1c(-c2ccc(F)cc2)oc2cc(N(C)S(C)(=O)=O)c(-c3ccc4nnn(Cc5ccccc5)c(=O)c4c3)cc12 [Compound 42, 5-(3-benzyl-4-oxo-3,4-dihydro-1,2,3-benzotriazin-6-yl)-2-(4-fluorophenyl)-N-methyl-6-[methyl(methylsulfonyl)amino]-1-benzofuran-3-carboxamide] | 9.55 nM | 9.48 nM | – | –
CNC(=O)c1c(-c2ccc(F)cc2)oc2cc(N(C)S(C)(=O)=O)c(-c3ccc4nc(COC)n(Cc5ccc(F)cc5)c(=O)c4c3)cc12 [Compound 53, 5-(3-(4-fluorobenzyl)-2-(methoxymethyl)-4-oxo-3,4-dihydroquinazolin-6-yl)-2-(4-fluorophenyl)-N-methyl-6-(N-methylmethylsulfonamido)benzofuran-3-carboxamide] | 2.45 nM | 2.57 nM | – | –
CNC(=O)c1c(-c2ccc(F)cc2)oc2cc(N(C)S(C)(=O)=O)c(-c3cc4c(=O)n(Cc5ccc(F)cc5)nnc4cc3C)cc12 [Compound 72, 5-[3-(4-fluorobenzyl)-7-methyl-4-oxo-3,4-dihydro-1,2,3-benzotriazin-6-yl]-2-(4-fluorophenyl)-N-methyl-6-[methyl(methylsulfonyl)amino]-1-benzofuran-3-carboxamide] | 6.47 nM | 8.62 nM | – | –
CNC(=O)c1c(-c2ccc(F)cc2)oc2cc(N(C)S(C)(=O)=O)c(-c3ccc4nc(C)n(Cc5ccc(F)cc5F)c(=O)c4n3)cc12 [Compound 64, 5-(3-(2,4-difluorobenzyl)-2-methyl-4-oxo-3,4-dihydropyrido[3,2-d]pyrimidin-6-yl)-2-(4-fluorophenyl)-N-methyl-6-(N-methylmethylsulfonamido)benzofuran-3-carboxamide] | 3.63 nM | 4.12 nM | – | –
CNC(=O)c1c(-c2ccc(F)cc2)oc2cc(N(C)S(C)(=O)=O)c(-c3ccc4c(n3)C(=O)N(c3cccc(F)c3)CO4)cc12 [Compound 3] | 2.84 nM | 4.83 nM | – | –
CNC(=O)c1c(-c2ccc(F)cc2)oc2cc(N(C)S(C)(=O)=O)c(-c3ccc4c(n3)C(=O)N(Cc3ccccc3)CO4)cc12 [Compound 1, 5-(3-benzyl-4-oxo-3,4-dihydro-2H-pyrido[2,3-e][1,3]oxazin-6-yl)-2-(4-fluorophenyl)-N-methyl-6-(N-methylmethylsulfonamido)benzofuran-3-carboxamide] | 2.44 nM | 3.22 nM | – | –
CNC(=O)c1c(-c2ccc(F)cc2)oc2cc(N(C)S(C)(=O)=O)c(-c3ccc4c(n3)C(=O)N(Cc3ccc(F)cn3)CO4)cc12 [Compound 11, 2-(4-fluorophenyl)-5-(3-((5-fluoropyridin-2-yl)methyl)-4-oxo-3,4-dihydro-2H-pyrido[2,3-e][1,3]oxazin-6-yl)-N-methyl-6-(N-methylmethylsulfonamido)benzofuran-3-carboxamide] | 7.68 nM | 15.3 nM | – | –
CNC(=O)c1c(-c2ccc(F)cc2)oc2cc(N(C)S(C)(=O)=O)c(-c3ccc4oc(=O)n(Cc5ccc(F)cc5)c(=O)c4n3)cc12 [Compound 14, 5-(3-(4-fluorobenzyl)-2,4-dioxo-3,4-dihydro-2H-pyrido[2,3-e][1,3]oxazin-6-yl)-2-(4-fluorophenyl)-N-methyl-6-(N-methylmethylsulfonamido)benzofuran-3-carboxamide] | 35.9 nM | 435 nM | – | –
CNC(=O)c1c(-c2ccc(F)cc2)oc2cc(N(C)S(C)(=O)=O)c(-c3ccc4c(n3)C(=O)N(Cc3ccc(C#N)cc3)CO4)cc12 [Compound 9] | 3.91 nM | 8.03 nM | – | –
CNC(=O)c1c(-c2ccc(F)cc2)oc2cc(N(C)S(C)(=O)=O)c(-c3cc(OC)c4nc(C)n(Cc5ccc(F)cc5)c(=O)c4c3)cc12 [Compound 69, 5-(3-(4-fluorobenzyl)-8-methoxy-2-methyl-4-oxo-3,4-dihydroquinazolin-6-yl)-2-(4-fluorophenyl)-N-methyl-6-(N-methylmethylsulfonamido)benzofuran-3-carboxamide] | 10.1 nM | 6.64 nM | – | –
CNC(=O)c1c(-c2ccc(F)cc2)oc2cc(N(C)S(C)(=O)=O)c(-c3cnc4ncn(-c5cccc(F)c5)c(=O)c4c3)cc12 [Compound 23] | 3.24 nM | 3.98 nM | – | –
CNC(=O)c1c(-c2ccc(F)cc2)oc2cc(N(C)S(C)(=O)=O)c(-c3ccc4c(n3)C(=O)N(CCc3ccccc3)CO4)cc12 [Compound 4] | 15.2 nM | 39.9 nM | – | –
CNC(=O)c1c(-c2ccc(F)cc2)oc2cc(N(C)S(C)(=O)=O)c(-c3ccc4nc(C)n(Cc5ccc(F)cc5)c(=O)c4n3)cc12 [Compound 68, 5-(3-(4-fluorobenzyl)-2-methyl-4-oxo-3,4-dihydropyrido[3,2-d]pyrimidin-6-yl)-2-(4-fluorophenyl)-N-methyl-6-(N-methylmethylsulfonamido)benzofuran-3-carboxamide] | 2.24 nM | 2 nM | – | –
CNC(=O)c1c(-c2ccc(F)cc2)oc2cc(N(C)S(C)(=O)=O)c(-c3ccc4ncn(Cc5ccccc5)c(=O)c4c3)cc12 [Compound 49, 5-(3-benzyl-4-oxo-3,4-dihydroquinazolin-6-yl)-2-(4-fluorophenyl)-N-methyl-6-(N-methylmethylsulfonamido)benzofuran-3-carboxamide] | 10.2 nM | 6.25 nM | – | –
CNC(=O)c1c(-c2ccc(F)cc2)oc2cc(N(C)S(C)(=O)=O)c(-c3cc(OC)c4nnn(Cc5ccc(F)cc5)c(=O)c4c3)cc12 [Compound 71, 5-[3-(4-fluorobenzyl)-8-methoxy-4-oxo-3,4-dihydro-1,2,3-benzotriazin-6-yl]-2-(4-fluorophenyl)-N-methyl-6-[methyl(methylsulfonyl)amino]-1-benzofuran-3-carboxamide] | 0.782 nM | 3.49 nM | – | –
CNC(=O)c1c(-c2ccc(F)cc2)oc2cc(N(C)S(C)(=O)=O)c(-c3ccc4nnn(Cc5ccc(F)cn5)c(=O)c4c3)cc12 [Compound 48, 2-(4-fluorophenyl)-5-{3-[(5-fluoropyridin-2-yl)methyl]-4-oxo-3,4-dihydro-1,2,3-benzotriazin-6-yl}-N-methyl-6-[methyl(methylsulfonyl)amino]-1-benzofuran-3-carboxamide] | 5.97 nM | 6.93 nM | – | –
CNC(=O)c1c(-c2ccc(F)cc2)oc2cc(N(C)S(C)(=O)=O)c(-c3ccc4nnn([C@H](C)c5ccc(F)cc5)c(=O)c4c3)cc12 [Compound 46, 2-(4-fluorophenyl)-5-{3-[(1R)-1-(4-fluorophenyl)ethyl]-4-oxo-3,4-dihydro-1,2,3-benzotriazin-6-yl}-N-methyl-6-[methyl(methylsulfonyl)amino]-1-benzofuran-3-carboxamide] | 10.2 nM | 7.65 nM | – | –
CNC(=O)c1c(-c2ccc(F)cc2)oc2cc(N(C)S(C)(=O)=O)c(-c3ccc4nc(CNC(C)=O)n(Cc5ccc(F)cc5)c(=O)c4c3)cc12 [Compound 54, 5-{2-[(acetylamino)methyl]-3-(4-fluorobenzyl)-4-oxo-3,4-dihydroquinazolin-6-yl}-2-(4-fluorophenyl)-N-methyl-6-[methyl(methylsulfonyl)amino]-1-benzofuran-3-carboxamide] | 2.73 nM | 2.34 nM | – | –
CNC(=O)c1c(-c2ccc(F)cc2)oc2cc(N(C)S(C)(=O)=O)c(-c3ccc4nc(C)n(Cc5ccc(F)cc5)c(=O)c4c3)cc12 [Compound 55, 5-[3-(4-fluorobenzyl)-2-methyl-4-oxo-3,4-dihydroquinazolin-6-yl]-2-(4-fluorophenyl)-N-methyl-6-[methyl(methylsulfonyl)amino]-1-benzofuran-3-carboxamide] | 2.42 nM | 1.93 nM | – | –
